One compound from patent US12708605B2, “Method of administering a hormone encapsulated by a hydrogel with a dual chamber syringe” (VITALTE LIFESCIENCES INC., priority 2024, dated 2026) can be followed below.

A short description of the series: Saturation level of T in saline (T powder slurry). Type of series: physicochemical. The method, then:
The T powder was produced as a 2.5 mg/mL slurry in buffer to reach the near saturation point of T in the buffer. Samples of the T powder slurry were removed from only the top layer of the slurry fluid to avoid aspirating T particles in the slurry that may have precipitated at to the bottom. T pellets were collected directly from the vials in which they were stored. The 83 mg hydrogels containing 30% T were collected from Dulbecco's PBS buffer, rinsed, and dried. Each of the collected samples was then placed in a separate container of incubation media (saline in this instance) for the release studies.
Samples of the respective incubation media for the T powder, pelleted T, and hydrogel encapsulated T were collected at 4, 24, and 48 hours, with 2-3 replicates from each experimental group at each collection time. All collected samples were then diluted before assaying for released T in the incubation media. Initially, the samples collected at 4 hours were diluted 400-fold, while the samples collected at 24 and 48 hours were diluted 1600-fold. […] As a result, dilution testing was performed at dilutions of 1200, 1600, 1800, 2200, 2400, and 3000-fold. […]

Regarding `C[C@]12CC[C@H]3[C@@H](CCC4=CC(=O)CC[C@@]43C)[C@@H]1CC[C@@H]2O` [T powder, Testosterone], the “approximate saturation level of T in saline” value was “about 1.5 mg/L”.
